Data set [1] deals with SMN2 minigene mRNA (SMN2-A minigene) in HEK293H cells. In words: SMN2 minigene mRNA splicing RT-qPCR assay in cultured cells. It counts as cell-based, human. The conditions noted are these: Homo sapiens, HEK293-H; concentration increasing full length SMN2 mRNA 1.5-fold relative to vehicle-treated cells; HEK293H cells with SMN2-A minigene, 24 hours, 7-point concentration data; read-out: EC1.5x for production of full length SMN2 mRNA. Put shortly: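 HEK293H cells stably carrying SMN2-A minigene treated with compounds (7-point, 3.16-fold dilutions, duplicates) for 24 h at 37 °C. Full-length exon 7-containing minigene mRNA measured by multiplex RT-qPCR with GAPDH, normalized and expressed relative to vehicle (modified ΔΔCt); EC1.5× is concentration giving 1.5-fold increase.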

In data set [2] the test system is Smn protein in SMA patient fibroblast cells (GM03813). Nature of the data set: Smn protein assay in cultured cells (SMN HTRF). The class given is cell-based, human. The conditions noted are these: SMA patient fibroblast cells, 48 hours; for EC1.5x for Smn protein expression: 7-point concentration curve, SMN HTRF, concentration producing 1.5 times Smn protein vs DMSO vehicle control; for maximum fold (Fold) increase of Smn protein: 7-point concentration data, fold relative to vehicle control. Put shortly:
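SMA patient fibroblasts (5,000/well, DMEM-10% FBS) treated 48 h at 37° C with 7-point, 3.16-fold compound series in triplicate; lysates read by SMN HTRF (665/620 nm ratio). Fold Smn increase over DMSO vehicle derived; EC1.5× is concentration giving 1.5-fold Smn, with maximum fold also reported.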

Results on 16 compounds are retold here after patent US11753407B2, “Compounds for treating spinal muscular atrophy” (PTC Therapeutics, Inc., priority 2012, dated 2023).

SMILES strings stand for the structures.

In turn, `COCCN1CCN(c2ccc3nc(-c4cc(Cl)c5nc(C)cn5c4)cc(=O)n3c2)C[C@@H]1C` [Compound 533, 2-(8-chloro-2-methylimidazo[1,2-a]pyridin-6-yl)-7-[(3S)-4-(2-methoxyethyl)-3-methylpiperazin-1-yl]-4H-pyrido[1,2-a]pyrimidin-4-one] returned a melting point of 179 to 183 °C. In addition, in data set [1], the EC (1.5-fold increase) was under 0.1 µM. For the same compound, in data set [2], the “EC1.5x for Smn protein expression” value was “*** (an EC1.5× between >0.3 μM and ≤1 μM is indicated by three stars (***))”; the “maximum fold (Fold) increase of Smn protein” value (shortened to “maximum fold (Fold) increase”) is given as “***** (a fold increase >1.65 is indicated by five stars (*****))”.

`COc1ccc(-c2cc(=O)n3cc(C4=CCN(CCO)CC4)cc(C)c3n2)cc1OC` [Compound 346, 2-(3,4-dimethoxyphenyl)-7-[1-(2-hydroxyethyl)-1,2,3,6-tetrahydropyridin-4-yl]-9-methyl-4H-pyrido[1,2-a]pyrimidin-4-one] came in with a melting point of 169 to 179 °C. The EC (1.5-fold increase) in data set [1] was under 0.1 µM. In addition, in data set [2], the “EC1.5x for Smn protein expression” value was “**** (an EC1.5x≤0.3 μM is indicated by four stars (****))”; the “maximum fold (Fold) increase” value was “**** (a fold increase between >1.5 and ≤1.65 is indicated by four stars (****))”.

For `Cc1cn2cc(-c3cc(=O)n4cc(C5CCN(C6CCC6)CC5)ncc4n3)ccc2n1` [Compound 628, 7-(1-cyclobutylpiperidin-4-yl)-2-(2-methylimidazo[1,2-a]pyridin-6-yl)-4H-pyrazino[1,2-a]pyrimidin-4-one], the melting point fell in the range of 249 to 251 °C. For the same compound, in data set [1], the EC (1.5-fold increase) was in the range of 0.3 to 1 µM. Also, in data set [2], the “EC1.5x for Smn protein expression” value is “* (An EC1.5× for Smn protein expression between >3 μM and ≤10 μM is indicated by one star (*))”; the “maximum fold (Fold) increase” value was “**** (a fold increase between >1.5 and ≤1.65 is indicated by four stars (****))”.

`Cc1cn2nc(-c3cc(=O)n4cc(N5CCC(N6CCN(C)CC6)CC5)ccc4n3)cc2c(C)n1` [Compound 427, 2-(4,6-dimethylpyrazolo[1,5-a]pyrazin-2-yl)-7-[4-(4-methylpiperazin-1-yl)piperidin-1-yl]-4H-pyrido[1,2-a]pyrimidin-4-one] came in with a melting point of 198 to 200 °C. For the same compound, the EC (1.5-fold increase) in data set [1] lay in the range of 1 to 3 µM. Further, in data set [2], the “EC1.5x for Smn protein expression” value was “* (An EC1.5× for Smn protein expression between >3 μM and ≤10 μM is indicated by one star (*))”; the “maximum fold (Fold) increase” value is “*** (a fold increase between >1.35 and ≤1.5 is indicated by three stars (***))”.

For `COc1ccc(-c2cc(=O)n3cc(N4CCN(C)CC4)ccc3n2)cc1OC` [Compound 13, 2-(3,4-dimethoxyphenyl)-7-(4-methylpiperazin-1-yl)-4H-pyrido[1,2-a]pyrimidin-4-one], the melting point fell in the range of 183 to 185 °C. In data set [1], the EC (1.5-fold increase) was 1 to 3 µM. Also, the “maximum fold (Fold) increase” value in data set [2] is “** (a fold increase between >1.2 and ≤1.35 is indicated by two stars (**))”.

`Cc1nc2ccc(-c3cc(=O)n4cc(N5C[C@H]6CN(C)C[C@H]6C5)ccc4n3)cc2o1` [Compound 267, 2-(2-methyl-1,3-benzoxazol-6-yl)-7-[(3aR,6aS)-5-methylhexahydropyrrolo[3,4-c]pyrrol-2(1H)-yl]-4H-pyrido[1,2-a]pyrimidin-4-one] returned a melting point of 200 to 204 °C. For the same compound, the EC (1.5-fold increase) in data set [1] was under 0.1 µM. Also, in data set [2], the “EC1.5x for Smn protein expression” value is listed as “**** (an EC1.5x≤0.3 μM is indicated by four stars (****))” and the “maximum fold (Fold) increase” value is on record as “***** (a fold increase >1.65 is indicated by five stars (*****))”.

As to `COc1ncc(-c2cc(=O)n3cc(N4CCNCC4)ccc3n2)cc1Cl` [Compound 96, 2-(5-chloro-6-methoxypyridin-3-yl)-7-(piperazin-1-yl)-4H-pyrido[1,2-a]pyrimidin-4-one], the melting point is 201 to 209 °C. Further, the EC (1.5-fold increase) in data set [1] is 0.3 to 1 µM. For the same compound, in data set [2], the “EC1.5x for Smn protein expression” value is “*** (an EC1.5× between >0.3 μM and ≤1 μM is indicated by three stars (***))”; the “maximum fold (Fold) increase” value is “**** (a fold increase between >1.5 and ≤1.65 is indicated by four stars (****))”.

Consider `Cc1cn2cc(-c3cc(=O)n4cc(N5CCN(CCOCCO)[C@@H](C)C5)ccc4n3)cc(F)c2n1` [Compound 540, 2-(8-fluoro-2-methylimidazo[1,2-a]pyridin-6-yl)-7-{(3S)-4-[2-(2-hydroxyethoxy)ethyl]-3-methylpiperazin-1-yl}-4H-pyrido[1,2-a]pyrimidin-4-one], for which the melting point was in the range of 175 to 181 °C. In addition, the EC (1.5-fold increase) in data set [1] is under 0.1 µM. The “maximum fold (Fold) increase” value in data set [2] was “*** (a fold increase between >1.35 and ≤1.5 is indicated by three stars (***))”.

On to `Cc1cn2cc(-c3cc(=O)n4cc(N5CCN[C@@H](C)C5)ccc4n3)cc(C3CC3)c2n1` [Compound 716, 2-(8-cyclopropyl-2-methylimidazo[1,2-a]pyridin-6-yl)-7-[(3S)-3-methylpiperazin-1-yl]-4H-pyrido[1,2-a]pyrimidin-4-one], for which the melting point lay within 246 to 250 °C. Besides, the EC (1.5-fold increase) in data set [1] is under 0.1 µM. Besides, in data set [2], the “EC1.5x for Smn protein expression” value is “*** (an EC1.5× between >0.3 μM and ≤1 μM is indicated by three stars (***))”; the “maximum fold (Fold) increase” value was “***** (a fold increase >1.65 is indicated by five stars (*****))”.

`CCc1nc(C)cn2cc(-c3cc(=O)n4cc(N5C[C@@H](C)N[C@@H](C)C5)ccc4n3)cc12` [Compound 748, 7-[(3R,5S)-3,5-dimethylpiperazin-1-yl]-2-(1-ethyl-3-methylpyrrolo[1,2-a]pyrazin-7-yl)-4H-pyrido[1,2-a]pyrimidin-4-one] had a melting point of 238 to 241 °C. Moreover, the EC (1.5-fold increase) in data set [1] is under 0.1 µM. For the same compound, in data set [2], the “EC1.5x for Smn protein expression” value was “**** (an EC1.5x≤0.3 μM is indicated by four stars (****))” and the “maximum fold (Fold) increase” value is reported as “***** (a fold increase >1.65 is indicated by five stars (*****))”.

With `Cc1cn2cc(-c3ccc4nc(C5=CCN(C)CC5)cc(=O)n4c3)ccc2n1` [Compound 376, 7-(2-methylimidazo[1,2-a]pyridin-6-yl)-2-(1-methyl-1,2,3,6-tetrahydropyridin-4-yl)-4H-pyrido[1,2-a]pyrimidin-4-one], the melting point is 203 to 207 °C. For the same compound, the EC (1.5-fold increase) in data set [1] was under 0.1 µM. In data set [2], the “EC1.5x for Smn protein expression” value is “*** (an EC1.5× between >0.3 μM and ≤1 μM is indicated by three stars (***))”; the “maximum fold (Fold) increase” value was “*** (a fold increase between >1.35 and ≤1.5 is indicated by three stars (***))”.

Regarding `Cc1cn2cc(-c3cc(=O)n4cc(C5=CCN(C(C)C)CC5)ncc4n3)cc2c(C)n1` [Compound 479, 2-(1,3-dimethylpyrrolo[1,2-a]pyrazin-7-yl)-7-[1-(propan-2-yl)-1,2,3,6-tetrahydropyridin-4-yl]-4H-pyrazino[1,2-a]pyrimidin-4-one], the melting point is 220 to 222 °C. Also, the EC (1.5-fold increase) in data set [1] was under 0.1 µM. Also, the “maximum fold (Fold) increase” value in data set [2] was “** (a fold increase between >1.2 and ≤1.35 is indicated by two stars (**))”.

The compound `CCc1nc(C)cn2nc(-c3cc(=O)n4cc(N5CCN[C@H](C)C5)cc(C)c4n3)cc12` [Compound 783, 2-(4-ethyl-6-methylpyrazolo[1,5-a]pyrazin-2-yl)-9-methyl-7-[(3R)-3-methylpiperazin-1-yl]-4H-pyrido[1,2-a]pyrimidin-4-one] showed a melting point of 223 to 233 °C. Moreover, in data set [1], the EC (1.5-fold increase) is under 0.1 µM. Further, in data set [2], the “EC1.5x for Smn protein expression” value is recorded as “**** (an EC1.5x≤0.3 μM is indicated by four stars (****))” and the “maximum fold (Fold) increase” value is recorded as “***** (a fold increase >1.65 is indicated by five stars (*****))”.

Compound `CC1(C)CN(c2ccc3nc(-c4ccc5c(c4)OCCO5)cc(=O)n3c2)CCN1` [Compound 36, 2-(2,3-dihydro-1,4-benzodioxin-6-yl)-7-(3,3-dimethylpiperazin-1-yl)-4H-pyrido[1,2-a]pyrimidin-4-one] showed a melting point of 196 to 198 °C. Also, the EC (1.5-fold increase) in data set [1] lay within 3 to 30 µM. Also, in data set [2], the “maximum fold (Fold) increase” value is recorded as “* (A maximum fold increase of ≤1.2 is indicated by one star (*))”.

`COc1ccc(-c2cc(=O)n3cc(N4C[C@H]5CNC[C@H]5C4)ccc3n2)cc1F` [Compound 212, 2-(3-fluoro-4-methoxyphenyl)-7-[(3aR,6aS)-hexahydropyrrolo[3,4-c]pyrrol-2(1H)-yl]-4H-pyrido[1,2-a]pyrimidin-4-one] displayed a melting point of 195 to 200 °C. The EC (1.5-fold increase) in data set [1] lay within 0.1 to 0.3 µM. Besides, in data set [2], the “EC1.5x for Smn protein expression” value was “**** (an EC1.5x≤0.3 μM is indicated by four stars (****))”; the “maximum fold (Fold) increase” value is “**** (a fold increase between >1.5 and ≤1.65 is indicated by four stars (****))”.

In the case of `COc1ccc(-c2cc(=O)n3cc(N4CCN[C@@H](C)C4)ccc3n2)cc1OC` [Compound 30, 2-(3,4-dimethoxyphenyl)-7-[(3S)-3-methylpiperazin-1-yl]-4H-pyrido[1,2-a]pyrimidin-4-one], the melting point was 153 to 158 °C. For the same compound, in data set [1], the EC (1.5-fold increase) was under 0.1 µM. Besides, in data set [2], the “EC1.5x for Smn protein expression” value was “** (an EC1.5× between >1 μM and ≤3 μM is indicated by two stars (**))”; the “maximum fold (Fold) increase” value was “**** (a fold increase between >1.5 and ≤1.65 is indicated by four stars (****))”.
